# Measurements published in paper PMC9268243, “Metabolic Behaviors of Aconitum Alkaloids in Different Concentrations of Aconiti Lateralis Radix Praeparata and Effects of Aconitine in Healthy Human and Long QT Syndrome Cardiomyocytes” (Molecules, 2022).
# Read-outs that look alike come from different tables or passages of the source.
# Experiments:
# [1] = Pharmacokinetic study of six aconitum alkaloids in rat plasma after oral Fu Zi extracts (UPLC-MS/MS); assay type: in vivo, Sprague Dawley rats; details: SD rat plasma, mean ± SD, n = 8; for Cmax / Tmax / AUC(0-t) / CL/F / Vd/F / half-life: both sexes, Sprague Dawley, in vivo; for AUC(0-t): read-out: AUC(0–48h); for CL/F: read-out: CLz/F (converted); for Vd/F: read-out: Vz/F; for half-life: read-out: t1/2z (converted)
# Experimental: Fu Zi (200 g) was taken and broken by a pulverizer to the size of 0.5–1.0 cm. The broken Fu Zi was soaked in 1.6 L distilled water and boiled for 0.5 h. The filtrate was collected and the previous step was repeated for the filtered residue. The mixed filtrates were precipitated with 60% ethanol, and then centrifuged (2000× g, 10 min). The supernatant was decompressed and concentrated to a final density of 2.0 g/mL by the amount of the crude drugs. The final concentration of ethanol in Fu Zi extracts before administration was below 0.5%. The extract was subsequently kept at −20 °C for oral administration to rats.
# All samples were analyzed on UPLC® I-Class and Xevo® TQS mass spectrometry combined system. Separations by a Waters ACQUITY UPLC® HSS T3(2.1 mm × 100 mm, 1.8 μm) column were conducted with a mobile phase of water (A) and acetonitrile (B), both containing 0.1% formic acid, at the flow rate of 0.3 mL·min^−1.The run time was 5.0 min and the gradient elution program was adopted as follows: 0–0.3 min, 10% B; 0.3–1 min, 10–50% B; 1–2.5 min, 50–90% B; 2.5–3 min, 90% B; 3–5 min, 10% B. The temperature of the column and samples were set at 45 °C and 10 °C, respectively. The volume of injection was 2 μL.
# The detection was quantified by a triple quadrupole mass spectrometer that was set as multiple reactive monitoring (MRM) in the electrospray positive ionization mode (ESI+). The correlative parameters were as follows: capillary voltage: 3 kV; desolvation gas flow: 800 L·h^−1; cone gas flow: 150 L·h^−1; source temperature: 150 °C; desolvation temperature: 500 °C.
# The method of […] was utilized. An amount of 100 μL of plasma samples from rats after oral administration of Fu Zi extracts was precipitated with 300 μL of 50% acetonitrile plus 50% methanol, vortexed for 1.0 min and centrifuged at a speed of 12,000× g at 4 °C for 10 min. The supernatant was transferred to another 1.5 mL centrifuge tube, dried with a stream of nitrogen at 40 °C, redissolved in 50 μL methanol and centrifuged at 12,000× g for 10 min. Then, the supernatant was pipetted out into the autosampler vials and analyzed by UPLC-MS/MS system.
# 24 Sprague Dawley rats (half male and female, weight 180–220 g) were purchased from Beijing Weitong Lihua Biotechnology Co.Ltd. (Beijing, China). The license number of experimental animal production was SCXK (Jing) 2016–0006. The animals were maintained under a standard laboratory condition (humidity: 40–70%, room temperature: 20–26 °C, […], 12 h dark-light cycle) and fed separately. All animal experiments were conducted according to the Guide for the Care and Use of Laboratory Animals (National Research Council of the USA, 1996) and approved by the Institutional Animal Care and Use Committee (IACUC-DWZX-2020-776). After 5 days of acclimation, the rats were fasted for 12 h but provided with water freely before the experiments. The rats were randomly divided into 3 groups: high (2.0 g/kg), middle (1.0 g/kg), and low (0.5 g/kg) dose groups. The Fu Zi extracts was administered to each rat intragastrically. An equivalent of 0.20 mL blood samples were collected from the fossa orbitalis vein into 1.5 mL heparinized centrifuge tubes at the designated time points after dosing: 0.08, 0.25, 0.5, 1, 2, 4, 8, 12, 24, and 48 h. The plasma samples were pipetted out into another 1.5 mL centrifuge tubes after being centrifuged at 5000× g for 10 min and then stored at −20 °C until further analysis.
# The data were acquired by […] from Waters (UNIFI). Microsoft Office Excel and the SPSS software (Version 13.0) was used for data analysis. The data below the LLOQ were regarded as zero in summary statistics. The pharmacokinetic parameters were calculated by DAS pharmacokinetic program (Version 2.0) and all analyzed by non-compartmental method. […] All data were presented as mean ± SD. […]
# [2] = system: CYP3A4; details: in vivo; cited from earlier work
Compound,Cmax ([1]; oral Fu Zi extracts 0.5 g/kg) [ng/mL],Tmax ([1]; oral Fu Zi extracts 0.5 g/kg) [h],AUC(0-t) ([1]; oral Fu Zi extracts 0.5 g/kg) [ng·h/mL],CL/F ([1]; oral Fu Zi extracts 0.5 g/kg) [mL/min/kg],Vd/F ([1]; oral Fu Zi extracts 0.5 g/kg) [L/kg],half-life ([1]; oral Fu Zi extracts 0.5 g/kg) [h],Cmax ([1]; oral Fu Zi extracts 1.0 g/kg) [ng/mL],Tmax ([1]; oral Fu Zi extracts 1.0 g/kg) [h],AUC(0-t) ([1]; oral Fu Zi extracts 1.0 g/kg) [ng·h/mL],CL/F ([1]; oral Fu Zi extracts 1.0 g/kg) [mL/min/kg],Vd/F ([1]; oral Fu Zi extracts 1.0 g/kg) [L/kg],half-life ([1]; oral Fu Zi extracts 1.0 g/kg) [h],Cmax ([1]; oral Fu Zi extracts 2.0 g/kg) [ng/mL],Tmax ([1]; oral Fu Zi extracts 2.0 g/kg) [h],AUC(0-t) ([1]; oral Fu Zi extracts 2.0 g/kg) [ng·h/mL],CL/F ([1]; oral Fu Zi extracts 2.0 g/kg) [mL/min/kg],Vd/F ([1]; oral Fu Zi extracts 2.0 g/kg) [L/kg],half-life ([1]; oral Fu Zi extracts 2.0 g/kg) [h],main CYP 450 subtype for alkaloid metabolism [2],t1/2z ([1]; oral Fu Zi extracts 1.0 g/kg) [h]
"CCN1CC2(COC)C(O)CC(OC)C34C5CC6(O)C(OC)C(O)C(O)(C5C6OC(=O)c5ccccc5)C(C(OC)C23)C14 (stereo not shown) [BAC, benzoylaconine]",1.52 ± 0.71,3.72 ± 3.6,16.2 ± 5.43,460,194 ± 117,4.48 ± 0.64,3.24 ± 2.01,5.71 ± 5.07,38.5 ± 15.4,271,152 ± 97.1,5.91 ± 3.79,5.91 ± 2.25,0.34 ± 0.2,50.5 ± 19.4,583,801 ± 396,13.7 ± 4.26,–,–
"COC[C@@]12CC[C@H](OC)[C@]34C(C([C@H](OC)[C@H]13)[C@]1(OC(C)=O)[C@H]3[C@@H](OC(=O)c5ccccc5)[C@](O)(C[C@H]34)[C@@H](OC)[C@@H]1O)N(C)C2 [HA, hypaconitine]",6.37 ± 1.96,2.14 ± 0.9,62.9 ± 26.9,67,12.8 ± 6.88,1.83 ± 0.64,9.22 ± 1.78,3.88 ± 2.03,115 ± 25,59.5,45.3 ± 26.3,–,12.5 ± 4.42,1.6 ± 1.47,186 ± 64.7,79.7,80.4 ± 35.5,11.9 ± 4.59,CYP3A4,8.72 ± 3.40
